Source: ChEMBL document CHEMBL1201862, “PubChem BioAssay data set” (2004)
Several values for one entry are separate records, joined by “and”; a condition that tells them apart may be missing. Equal values may be shown once. Activity calls are given as the source filed them.

Tests used:
[1] = target: T1, Bcl-2-related protein A1 (Mus musculus, UniProt Q07440); experiment: Bfl-1 inhibitors, primary screen, biochemical, fluorescence polarization, FITC-Bid, mouse (AID 432)
T1 sequence (Q07440 whole entry): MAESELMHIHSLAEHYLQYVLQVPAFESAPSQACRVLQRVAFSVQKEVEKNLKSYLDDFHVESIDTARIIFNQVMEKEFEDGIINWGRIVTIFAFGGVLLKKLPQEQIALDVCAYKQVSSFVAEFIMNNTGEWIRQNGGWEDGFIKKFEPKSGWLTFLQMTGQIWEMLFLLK

[2] = target: Glyceraldehyde-3-phosphate dehydrogenase (Homo sapiens, UniProt P04406)
Chain of Glyceraldehyde-3-phosphate dehydrogenase (P04406 whole entry): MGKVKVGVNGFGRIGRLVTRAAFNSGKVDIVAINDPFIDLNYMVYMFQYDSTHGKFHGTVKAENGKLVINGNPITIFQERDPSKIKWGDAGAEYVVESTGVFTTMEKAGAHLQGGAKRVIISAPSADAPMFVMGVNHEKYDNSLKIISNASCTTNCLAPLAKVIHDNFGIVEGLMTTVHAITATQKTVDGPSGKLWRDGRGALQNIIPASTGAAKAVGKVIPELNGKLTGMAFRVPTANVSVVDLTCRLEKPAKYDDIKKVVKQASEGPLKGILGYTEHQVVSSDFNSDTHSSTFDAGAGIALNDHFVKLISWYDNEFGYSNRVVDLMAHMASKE

[3] = cytotoxicity in HPDE-C7 cells, cell-based, fluorescence, HTS (AID 430); assay type: functional; conditions: Homo sapiens
[4] = target: T1, Bcl-2-related protein A1; experiment: Bfl-1 inhibitors blocking BH3 peptide binding, confirmation, biochemical, TR-FRET, mouse Bfl-1 (AID 621);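 further: TR-FRET binding of GST-Bfl-1 to FITC-labelled Bid peptide via terbium antibody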
[5] = cytotoxicity in KRAS-transformed pancreatic duct cells, primary screen, cell-based, fluorescence, HTS (AID 431); assay type: functional; conditions: Homo sapiens;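 further: cell line used: HPDE-C7K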
[6] = target: T1, Bcl-2-related protein A1; experiment: Bfl-1 binding inhibitors, SAR follow-up, biochemical, fluorescence polarization (AID 1070)
[7] = tested on: CHO; experiment: cytotoxicity in TLR9-MyD88 CHO cells, dose response, cytotoxicity control for TLR9-MyD88 binding inhibitor project, cell-based, luminescence (AID 588339); assay type: functional, hamster; conditions: Cricetulus griseus;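 further: CHO cells stably coexpressing TLR9 and MyD88 fusions from primary screen; compound exposure lasted 48 hours before viability readout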
[8] = target: T2, Replicative DNA helicase DnaB (Mycobacterium tuberculosis, UniProt P9WMR3); experiment: DnaB intein splicing inhibitors, dose response, biochemical, cell-free fluorescence (AID 449749); assay type: functional
T2 sequence (P9WMR3 whole entry): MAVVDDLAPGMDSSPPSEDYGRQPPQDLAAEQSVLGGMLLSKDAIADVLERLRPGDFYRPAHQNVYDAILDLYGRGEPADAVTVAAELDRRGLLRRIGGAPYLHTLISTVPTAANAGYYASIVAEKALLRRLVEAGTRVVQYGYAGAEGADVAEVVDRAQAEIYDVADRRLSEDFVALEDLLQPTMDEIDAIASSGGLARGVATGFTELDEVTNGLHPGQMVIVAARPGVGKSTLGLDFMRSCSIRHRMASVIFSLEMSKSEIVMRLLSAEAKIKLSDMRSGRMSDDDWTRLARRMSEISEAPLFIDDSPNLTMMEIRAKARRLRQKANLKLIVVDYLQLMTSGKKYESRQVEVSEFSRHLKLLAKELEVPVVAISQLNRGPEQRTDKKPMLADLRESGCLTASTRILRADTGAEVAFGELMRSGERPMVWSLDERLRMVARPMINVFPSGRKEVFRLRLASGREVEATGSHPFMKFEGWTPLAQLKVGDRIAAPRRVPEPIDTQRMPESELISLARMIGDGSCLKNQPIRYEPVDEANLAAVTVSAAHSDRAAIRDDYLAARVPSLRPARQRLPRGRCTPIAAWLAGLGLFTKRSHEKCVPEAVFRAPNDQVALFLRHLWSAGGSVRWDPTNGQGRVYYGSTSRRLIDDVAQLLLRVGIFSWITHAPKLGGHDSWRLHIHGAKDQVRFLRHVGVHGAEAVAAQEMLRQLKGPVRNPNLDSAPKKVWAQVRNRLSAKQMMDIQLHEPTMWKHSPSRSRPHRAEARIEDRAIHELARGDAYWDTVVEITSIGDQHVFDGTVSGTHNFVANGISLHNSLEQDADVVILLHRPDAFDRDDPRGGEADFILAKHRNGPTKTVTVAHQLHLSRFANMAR

[9] = target: T3, Protein RecA (Mycobacterium tuberculosis, UniProt P9WHJ3); experiment: Fluorescence Cell-Free Homogeneous Dose Retest to Identify Inhibitors of RecA-Intein Splicing Activity. [Related pubchem assays (depositor defined):AID2097, AID2223, AID489010, AID492950]; assay type: functional
T3 sequence (P9WHJ3 whole entry): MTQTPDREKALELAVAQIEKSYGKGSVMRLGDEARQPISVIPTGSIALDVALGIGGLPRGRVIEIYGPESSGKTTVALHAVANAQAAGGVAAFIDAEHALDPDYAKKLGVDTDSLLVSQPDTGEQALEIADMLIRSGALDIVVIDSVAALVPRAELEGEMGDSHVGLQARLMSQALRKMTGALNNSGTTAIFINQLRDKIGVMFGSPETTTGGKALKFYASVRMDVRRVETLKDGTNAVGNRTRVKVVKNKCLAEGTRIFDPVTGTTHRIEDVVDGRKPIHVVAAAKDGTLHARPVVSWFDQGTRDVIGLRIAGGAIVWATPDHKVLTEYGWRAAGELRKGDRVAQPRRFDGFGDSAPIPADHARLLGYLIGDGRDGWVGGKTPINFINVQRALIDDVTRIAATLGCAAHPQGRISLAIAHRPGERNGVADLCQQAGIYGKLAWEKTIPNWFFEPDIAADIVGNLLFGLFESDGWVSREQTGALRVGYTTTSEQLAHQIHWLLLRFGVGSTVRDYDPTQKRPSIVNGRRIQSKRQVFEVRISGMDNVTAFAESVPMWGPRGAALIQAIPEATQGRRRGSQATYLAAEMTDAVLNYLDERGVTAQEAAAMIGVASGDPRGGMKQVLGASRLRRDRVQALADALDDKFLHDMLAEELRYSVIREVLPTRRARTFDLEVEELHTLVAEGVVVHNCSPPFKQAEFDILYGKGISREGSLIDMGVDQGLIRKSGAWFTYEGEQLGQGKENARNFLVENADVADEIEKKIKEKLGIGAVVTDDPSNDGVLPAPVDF

[10] = target: Beta Lactamase (Pseudomonas aeruginosa, UniProt Q932Y6); experiment: beta-lactamase reporter inhibitor potency, dose response, artefact control for TLR9-MyD88 binding inhibitor project, BLA reporter cells, FRET fluorescence (AID 588341); assay type: cell-based;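 further: cell based assay in CHO-K1 cells stably expressing beta-lactamase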
Chain of Beta Lactamase (Q932Y6 whole entry): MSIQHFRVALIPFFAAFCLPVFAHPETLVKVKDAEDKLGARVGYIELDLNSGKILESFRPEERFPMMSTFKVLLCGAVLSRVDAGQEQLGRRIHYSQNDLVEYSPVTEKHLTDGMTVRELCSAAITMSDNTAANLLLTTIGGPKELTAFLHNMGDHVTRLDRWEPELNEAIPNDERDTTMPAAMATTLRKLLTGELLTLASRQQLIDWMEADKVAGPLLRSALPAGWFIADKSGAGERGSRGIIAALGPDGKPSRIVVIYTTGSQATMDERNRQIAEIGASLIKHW

[11] = Shn3 3'UTR reporter inhibitors, dose response, cell-based, Clone20 osteoblasts, firefly luciferase, cherry-picked (AID 624132); assay type: functional;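 further: firefly luciferase luminescence from reporter carrying the Shn3 3'UTR in osteoblasts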
[12] = HepG2 cell cytotoxicity, dose response, cytotoxicity control for Shn3 inhibitor project, CellTiter-Glo, cherry-picked (AID 624134); assay type: functional, cell-based
[13] = control 3'UTR Renilla luciferase suppression, dose response, counter-screen for Shn3 inhibitor project, cell-based, Clone20-Shn3RL, cherry-picked (AID 624133); assay type: functional
[14] = NIH-3T3 fibroblast cytotoxicity, dose response, cytotoxicity control, cell-based, fluorescence, Alamar Blue, secondary assay (AID 2327); assay type: functional;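 further: NIH-3T3 mouse fibroblasts cultured with fluconazole at 8 µg/mL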
[15] = C. albicans growth with fluconazole, confirmation, fluorescence, retest (AID 2467); assay type: functional, cell-based
[16] = inhibitors of intracellular T. cruzi replication, confirmation, NIH3T3 host cells, beta-gal luminescence (AID 2044); assay type: functional, cell-based;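 further: intracellular parasites grown in NIH/3T3 mouse fibroblasts as host cells; luminescent beta-galactosidase reporter signal from transgenic T. cruzi replicating inside host cells; inhibitors lower the luminescence signal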
[17] = growth suppression of PTEN-null colon cells, dose response, cell-based, HCT116 PTEN knockout (AID 1047); assay type: functional;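 further: HCT116 colon tumor cells with PTEN knocked out; cells exposed to compound for 60 hours before readout; potency for loss of cell viability measured by luminescence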
[18] = Luminescence Cell-Based Dose Confirmation HTS to Identify Inhibitors of Polyadenylation.; assay type: functional
[19] = cytotoxicity toward NIH3T3 fibroblasts, dose response, counter-screen, cell-based, ATP luminescence, mouse fibroblasts (AID 2010); assay type: functional;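 further: cells exposed to compound for about 90 hours before reading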
[20] = growth suppression of beta-catenin-knockout colon cells, dose response, cell-based, HCT116, human colon tumor (AID 1045); assay type: functional;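 further: HCT116 colon tumor cells with beta catenin knocked out; cells exposed to compound for 60 hours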
[21] = Counterscreen for AddAB inhibitors: absorbance-based bacterial cell-based high throughput dose response assay for inhibitors of bacterial viability. [Related pubchem assays (depositor defined):AID435030, AID449728, AID449731, AID488942, AID488955, AID488956]; assay type: functional
[22] = tested on: INS1; experiment: beta cell apoptosis inhibitors, cytokine rescue, dose response, luminescence, retest (AID 449756); assay type: functional, cell-based; conditions: Rattus norvegicus;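 further: cell death triggered by IL-1 beta plus TNF-alpha plus IFN-gamma mixture; protective hits raise ATP signal compared with cytokine alone wells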
[23] = target: NADPH oxidase 1 (Homo sapiens, UniProt Q9Y5S8); assay type: functional, cell-based;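 further: Cell-based assay with luminescence read-out, IC50 derived from inhibitor dose-response curves; intracellular ROS from endogenous NOX1 in intact HT29 colon cancer cells; potency of inhibitors that lower the ROS luminescence signal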
Chain of NADPH oxidase 1 (Q9Y5S8 whole entry): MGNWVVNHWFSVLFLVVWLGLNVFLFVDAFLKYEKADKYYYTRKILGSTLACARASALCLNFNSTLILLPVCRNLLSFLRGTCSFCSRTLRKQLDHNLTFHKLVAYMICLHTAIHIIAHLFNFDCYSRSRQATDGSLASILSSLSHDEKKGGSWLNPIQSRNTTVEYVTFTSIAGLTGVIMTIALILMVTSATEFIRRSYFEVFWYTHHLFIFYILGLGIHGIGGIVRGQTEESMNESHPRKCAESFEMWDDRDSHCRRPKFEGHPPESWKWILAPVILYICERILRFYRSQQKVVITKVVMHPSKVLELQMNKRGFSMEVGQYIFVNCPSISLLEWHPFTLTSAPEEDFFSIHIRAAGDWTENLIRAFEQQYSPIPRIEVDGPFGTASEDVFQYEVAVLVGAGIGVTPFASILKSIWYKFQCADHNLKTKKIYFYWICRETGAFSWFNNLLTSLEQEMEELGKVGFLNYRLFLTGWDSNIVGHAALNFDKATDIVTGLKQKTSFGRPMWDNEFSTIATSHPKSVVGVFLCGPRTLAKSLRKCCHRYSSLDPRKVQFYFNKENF

SMILES: CCOC(=O)CS(=O)(=O)c1nc(-c2ccc(F)cc2)cc(C(F)(F)F)n1
- IC50 [1]: 3.78 µM (active)
- IC50 [2]: > 100 µM (not active)
- EC50 [3]: 9.29 µM (active)
- IC50 [4]: 3.41 µM (active) and 1.46 µM (active)
- EC50 [5]: 6.05 µM (active)
- IC50 [6]: 2.16 µM (active)
- IC50 [7]: 2.88 µM (active)
- AC50 [8]: 3.35 µM (active)
- EC50 [9]: 3.3 µM (active)
- IC50 [10]: 14.4 µM (inactive)
- AC50 [11]: 1.78 µM (active)
- AC50 [12]: 20.9 µM (active)
- AC50 [13]: 6.97 µM (active)

SMILES: Cc1ccc2[nH]c(/C(C#N)=C\c3ccc([N+](=O)[O-])o3)nc2c1
- EC50 [14]: 3.01 µM (inconclusive)
- EC50 [15]: 0.387 µM (active)
- EC50 [16]: 0.604 µM (active)
- EC50 [17]: 1.02 µM (active)
- EC50 [18]: 5.85 µM (active)
- EC50 [19]: > 60 µM (not active)
- EC50 [20]: 1.04 µM (active)
- IC50 [21]: > 119 µM (inactive)
- AC50 [22]: 1.92 µM (active)

SMILES: COc1ccc2c(Cl)c(C(=O)Oc3ccccc3[N+](=O)[O-])sc2c1
- IC50 [23]: > 17 µM (not active)
